Results as given in US20230183746A1, “COMPOSITIONS FOR TRANSFER OF CARGO TO CELLS” (Sixfold Bioscience Ltd., priority 2019, published 2023).
Entries after “also recorded” stand apart in the source; their conditions may differ. {Cy5} = Cy5 fluorescent dye; r = 2'-OH (RNA); f = 2'-fluoro

What was measured:
[1] = system: EGFRvIII overexpressing HEK293T cells; assay: FACS based fluorescent molecule uptake assay; type: cell-based; details: 200 nM, 2 hours
From the text: A number of different cell types have been trialled for a FACS based fluorescent molecule uptake assay. These include stably transfected HEK293T cells overexpressing the truncated mutant EGFRvIII, which is characterised by a deletion of 267 amino acids in the extracellular domain and results in a receptor unable to bind ligand yet constitutively active. WT cells with various endogenous levels of EGFR expression have also been trialled: HELA cells (EGFR+), MCF-7 (EGFR-), MDA-MB-231 (EGFR+), and A549 (EGFR+). Seeding densities used were identical for all experiments and described below.
Cells were plated with 1x10^5 cells per well of 24 well plates. 24 hours later cells were treated with 200 nM of specified aptamer (A-1.0 or A-2.0) or nucleic acid nanoparticle in 250 µL DMEM media for 2 hours. To terminate internalisation, media was removed from cells and washed with 500 µL Dulbecco’s Phosphate Buffered Saline (D-PBS), followed by trypsinisation, neutralisation in DMEM media and transfer to labelled 1.5 mL Eppendorf tubes. […]
Geometric mean quantification of flow cytometry results after normalisation by removal of respective background fluorescence in untreated cells. Numbers above the bars are calculated fold increase in internalisation between control and EGFRvIII overexpressing HEK293T cells. […]

[2] = system: cancer cells expressing EGFR; assay: confocal microscopy of Cy5-labelled aptamer/construct uptake; type: cell-based; details: live HeLa cells, 200 nM, Lysotracker and early endosome GFP stains
Procedure: Cells were imaged by confocal microscopy after treatment with 200 nM Cy5-labelled E07min aptamer (A-1.0) or 200 nM Cy5-labelled constructs (SQ1-1000-001). For aptamer uptake experiments, 1x10^4 cells were plated in each well of a µ-Slide 8 well ibiditreat chamber (IBIDI), in 300 µL DMEM containing 10% v/v FBS. For uptake experiments, 3.4x10^3 cells (HeLa, MDA-MB-231 and A549 cells) or 6.8x10^3 cells (Mcf-7) were plated in each well of a µ-Slide 18 well ibiditreat chamber (IBIDI), in 100 µL DMEM containing 10% v/v FBS. 5 hours after cells had adhered and 48 hours before imaging, media was replaced with 50 particles per cell (PPC) CellLight early endosome-GFP (Thermo Fisher Scientific) for overnight incubation at 37° C. Additionally, 200 µL DMEM aliquots containing 200 nM aptamer were added to cells at corresponding incubation time points. Subsequently, media was removed and replaced with 60 nM LysoTracker Red DND-99 (Thermo Fisher Scientific) in 100-200 µL DMEM for 1 hour at 37° C. Cells were then washed once with Hank’s Balanced Salt Solution (HBSS) (Gibco). Finally, 100-200 µL imaging media (HBSS buffered with 20 mM 4-(2- hydroxyethyl)-1-piperazineethanesulfonic acid (HEPES), adjusted to pH 7.4) was added to cells. Confocal images were captured with an EVOS microscope or a Zeiss LSM510 laser scanning microscope using 60x oil objective lens. Images were produced using ImageJ software.

Q: “[Cy5] GGAcGGAuuuAAucGccGuAGAAAAGCAuGucAAAGccGGAAccGucc (GGACGGAUUUAAUCGCCGUAGAAAAGCAUGUCAAAGCCGGAACCGUCC; sugars from the 5' end rrrfrrrfffrrffrffrfrrrrrrrrrfrffrrrrffrrrrffrfff, 5' {Cy5}, backbone not given here) [A-1.0, 2′F U, C 5′ Cy5 E07min (SXF1) aptamer, anti-EGFR, literature-known]” was tested. Which “EGFR targeting specificity compared to a scramble control aptamer (A-3.0)” value ([1]; control vs EGFRvIII overexpressing HEK293T cells) did it give?
A: 10 fold

Q: And the “specificity of uptake (flow cytometry)” value ([1]; Cy5-labelled aptamer)?
A: more specifically uptaken than SXF2 (CL4 aptamer); also recorded: specifically uptaken by EGFR expressing cells

Q: And the “intracellular localisation after internalisation” value [2]?
A: accumulate in lysosomes after internalisation
